From patent US20060193893A1, “Medical devices” (ChemGenex Pharmaceuticals, Inc., priority 2005, published 2006) come the findings set out here.

Marks after values point to notes of the source that are not given here.

For the data set, the system named is chorioallantoic membrane (CAM). In words: Effects of homoharringtonine in the early chicken chorioallantoic membrane (CAM) assay. Type of data set: in vivo. To be noted: for CAM area, Day 4: Day 4 (start of treatment, matched groups); for CAM area, Day 4 / CAM increase (fold) / Artery length / CAM area, Day 5 / Relative artery length / Relative total vessel length / Relative vein length / Total vessel length / Vein length: mean ± SEM, n = 6; for CAM increase (fold): Day 4 to Day 5; for Artery length / CAM area, Day 5 / Relative artery length / Relative total vessel length / Relative vein length / Total vessel length / Vein length: Day 5. As for the experimental part:
Fertilized chicken eggs (HiChick Breeding Co, Kapunda, South Australia) were incubated for three days at 38° C. On Day 3 the embryos were cracked out of the egg and into a cup made of plastic piping, with plastic film stretched over the top to form a hammock for the egg to be suspended in. Two ml of DMEM containing penicillin and streptomycin was added to each cup prior to the egg being added. A Petri dish on the top maintained sterility. Incubation continued in a humidified 37° C. incubator.
On Day 4 the chorioallantoic membrane (CAM) begins to grow, and pictures were taken of each embryo at ×5 to measure the CAM area using image analysis software (Video Pro 32, Leading Edge Pty Ltd, South Australia). Embryos were then grouped according to their CAM area, with a control embryo in each for comparison. There were four matched embryos, treated with 6.25, 12.5 and 25 ng of homoharringtonine. Grouping is critical as in these early developmental stages changes in the CAM growth are dramatic. Relatively small differences in size on Day 4 translate to large differences in the CAM on Day 5, making it impossible to compare treatments. Substances were applied in methylcellulose discs, which were first dried under vacuum overnight. The methylcellulose discs were applied to the top of the CAM, and at the beginning of treatment were at least three to four-fold bigger than the CAM area, meaning treatment covered the entire CAM surface.
On Day 5 skim milk with contrast medium was injected into the CAM. Pictures were then taken at various levels of magnification up to ×63. Quantitative measurements were made from ×5 pictures. CAM area, and vein and artery lengths were measured using image analysis (Video Pro 32, Leading Edge Pty Ltd, South Australia). Relative vessel lengths were then calculated as the total length/CAM area. Statistical analysis was made using SigmaStat and OneWay ANOVA with p<0.05 as the level of significance.
FIG. 3A illustrates the normal organization of the CAM is uniform, with the major vein draining towards the left, and the artery branches coming over the edge of the top and bottom of the CAM. FIGS. 3B and 3C schematically illustrate tracing of the vein and artery branches, as performed for the measurement of vessel lengths.
The angiogenic inhibitor, homoharringtonine, was obtained from ChemGenex Therapeutics, Inc. (Menlo Park, Calif.) and was made to the appropriate concentration in sterile water. […] Homoharringtonine was applied at 6.25, 12.5 and 25 ng (11.3, 22.5 and 45 nM) doses, and compared with water treated controls. Homoharringtonine reduced the growth of the CAM to 42% of the control in the 25 ng treated CAM. […] The vein, artery and total vessel lengths were reduced to 15%, 18% and 17% of control, respectively.

In the case of `COC(=O)C[C@](O)(CCCC(C)(C)O)C(=O)O[C@@H]1C(OC)=C[C@]23CCCN2CCc2cc4c(cc2[C@H]13)OCO4` [Homoharringtonine, cephalotaxine, 4-methyl-2-hydroxy-2-(4-hydroxy-4-methylpentyl) butanediocate ester], where the note is “6.25 ng in methylcellulose disc”, the “CAM area, Day 4” value was 6.5 ± 1.6 pixels. Besides, under “6.25 ng”, the “CAM increase (fold)” value is listed as 7.0 ± 0.4 ^a fold; the Artery length is given as 1573 ± 516^ pixels; the “CAM area, Day 5” value worked out at 45.3 ± 11.6 pixels; the Relative artery length was 31.6 ± 4.5 ^a b length/CAM area. In addition, under “6.25 ng”, the “Relative total vessel length” value is 63.2 ± 7.7 ^b length/CAM area, the Relative vein length is 31.6 ± 4.6 ^b length/CAM area, the Total vessel length is 3055 ± 1003 pixels and the Vein length is 1482 ± 499^ pixels. Besides, where the note is “12.5 ng in methylcellulose disc”, the “CAM area, Day 4” value is on record as 6.3 ± 1.6^ pixels. Further, for the setting “12.5 ng”, the “CAM increase (fold)” value was 9.0 ± 1.0 ^b fold; the Artery length was 1787 ± 544 ^ pixels; the “CAM area, Day 5” value is 53.0 ± 11.6^ pixels; the “Relative total vessel length” value is listed as 60.1 ± 7.5 ^b length/CAM area. Besides, where the note is “12.5 ng”, the Relative vein length is reported as 28.3 ± 4.4 ^b length/CAM area, the Total vessel length is recorded as 3351 ± 953 ^ pixels and the Vein length is listed as 1564 ± 427 ^ pixels. Further, the “embryo survival at 25 ng” value (25 ng dose) was “killed one of the smaller embryos”. Moreover, where the note is “25 ng group vs water control”, the “artery length, % of control” value is recorded as 18%; the “total vessel length, % of control” value is listed as 17%; the “vein length, % of control” value is listed as 15%. Moreover, the “CAM area, Day 4” value (25 ng in methylcellulose disc) came to 6.2 ± 1.5 pixels. In addition, the “growth of the CAM, % of the control” value (25 ng treated CAM vs water control) was 42%. Besides, under “25 ng”, the “CAM increase (fold)” value is 4.3 ± 0.7 ^a fold; the Artery length is 551 ± 265 ^a pixels; the “CAM area, Day 5” value is 30.2 ± 9.9 ^ pixels; the Relative artery length is recorded as 13.0 ± 4.3 ^a length/CAM area. Further, under “25 ng”, the “Relative total vessel length” value was 24.3 ± 6.7 ^a length/CAM area, the Relative vein length is 11.3 ± 3.5 ^a length/CAM area, the Total vessel length is reported as 909 ± 396 ^a pixels and the Vein length was 359 ± 143 ^a pixels. Besides, the “embryo survival at the initial doses” value (initial doses, above 25 ng, dose then reduced) was “resulted in the death of the embryos”.

Regarding `CC(=O)O[C@H]1C(=O)[C@@]2(C)[C@H]([C@H](OC(=O)c3ccccc3)[C@]3(O)C[C@H](OC(=O)[C@H](O)[C@@H](NC(=O)c4ccccc4)c4ccccc4)C(C)=C1C3(C)C)[C@]1(OC(C)=O)CO[C@@H]1C[C@@H]2O` [taxol], the “qualitative changes at higher magnification (FIG. 5)” value (homoharringtonine 25 ng, taxol dose not given, vs water control) is “diffuse leakage of the red blood cells outside the vessels and the skeletons of larger vessels with no remaining blood flow”.
